In patent publication EP0880540B1, “17-BETA-CYCLOPROPYL(AMINO/OXY) 4-AZA STEROIDS AS ACTIVE INHIBITORS OF TESTOSTERONE 5-ALPHA-REDUCTASE AND C17-20-LYASE” (Aventis Pharmaceuticals Inc., priority 1996, dated 1997):

Target: T1, nude mouse testicular C17,20 lyase (Mus musculus, UniProt P27786)
T1 construct: from tissue; host or cells: testes of male athymic nude mice (Harlan Laboratories), 10,000 x g supernatant of homogenate
T1 sequence (P27786 1-507): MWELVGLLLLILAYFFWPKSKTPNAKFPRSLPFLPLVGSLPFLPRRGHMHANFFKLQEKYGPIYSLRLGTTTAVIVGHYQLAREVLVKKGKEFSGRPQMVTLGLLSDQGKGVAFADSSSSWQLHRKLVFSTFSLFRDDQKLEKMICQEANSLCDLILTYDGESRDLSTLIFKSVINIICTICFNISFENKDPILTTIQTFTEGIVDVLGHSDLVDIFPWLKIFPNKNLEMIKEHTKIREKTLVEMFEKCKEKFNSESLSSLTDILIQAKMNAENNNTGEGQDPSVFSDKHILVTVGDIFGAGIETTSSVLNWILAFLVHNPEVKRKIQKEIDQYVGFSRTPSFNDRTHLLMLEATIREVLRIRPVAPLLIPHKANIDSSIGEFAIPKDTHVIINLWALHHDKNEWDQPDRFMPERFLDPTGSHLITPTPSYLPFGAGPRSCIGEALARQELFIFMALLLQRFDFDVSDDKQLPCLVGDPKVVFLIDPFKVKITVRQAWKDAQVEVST
Assay: Ex vivo inhibition of C17,20 lyase in nude mouse testes after oral dosing
Set-up: species or system male athymic nude mice
Settings: 4 hours after oral dosing
Experimental: Ex vivo inhibition of C17,20 lyase: MDL 103,432 was tested for ex vivo inhibition of rat and nude mouse testes lyase. Male Copenhagen rats and male athymic nude mice obtained from Harlan Laboratories, Indianapolis, IN, were divided into groups of 5 to 6 based on weight. Average weight was 100-140 g each for rats and 18-35 g each for the mice. Prior to oral dosing, animals were fasted overnight. Test compound was prepared by micronization in a lecithin vehicle using a glass Teflon® pestle-type homogenizer. The compound was brought to volume using lecithin so as to administer 0.5 mL per 100 g animal. Rats and nude mice were given vehicle only (controls) or vehicle plus test compounds peros. Rats were also given the compound in lecithin or lecithin alone subcutaneously. Each group consisted of 5-6 animals. At a specified time after dosing, the animals were anesthetized with CO2 gas, sacrificed by cervical dislocation, testes were excised, capsules were removed, and the tissue was weighed. […] Assays were terminated, extracted and analyzed as described above except that carrier steroids were 17α-hydroxyprogesterone, androst-4-ene-dione, and testosterone. […] Activity of test compound was expressed as percent inhibition relative to the control and was the mean of each group of treated animals.

Structure (SMILES): CC12CCC3C(CC[C@H]4NC(=O)CCC34C)C1CC[C@@H]2OC1CC1 (stereo partly drawn) [MDL 103,432, 17β-Cyclopropyloxy-4-aza-5α-androstan-3-one]
- inhibition at 30 mg/kg (30 mg/kg): 88%
- inhibition at 100 mg/kg (100 mg/kg): 96%
